Assay results published in patent publication US20230203029A1 (priority 2020, published 2023).

Tests used:
[1] = molecular target: T1, human AXL cytoplasmic domain (Homo sapiens, UniProt P30530); assay: Assay 1b AXL HTRF KinEASE-TK assay; assay type: biochemical
T1 construct: human AXL cytoplasmic domain (Thermo Fisher A31515); purchased Thermo Fisher A31515
T1 sequence (P30530 473-894 limits assumed): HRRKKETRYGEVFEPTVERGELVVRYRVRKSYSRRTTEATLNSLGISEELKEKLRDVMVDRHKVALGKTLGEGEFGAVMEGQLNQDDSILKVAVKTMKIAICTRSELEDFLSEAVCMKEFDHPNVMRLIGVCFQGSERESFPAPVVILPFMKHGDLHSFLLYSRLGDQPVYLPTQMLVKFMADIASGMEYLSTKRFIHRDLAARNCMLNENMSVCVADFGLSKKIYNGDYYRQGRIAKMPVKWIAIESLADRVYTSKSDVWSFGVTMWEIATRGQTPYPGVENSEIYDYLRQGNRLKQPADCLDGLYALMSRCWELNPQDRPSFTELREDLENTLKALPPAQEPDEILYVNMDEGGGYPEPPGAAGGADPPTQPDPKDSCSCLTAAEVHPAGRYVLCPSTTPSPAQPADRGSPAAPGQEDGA
Method in brief: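 Recombinant cytoplasmic domain (5 nM) in kinase buffer with 5 mM MgCl2, 1 mM MnCl2, 1 mM DTT, 50 nM SEB plus test compounds; reaction 30 min at room temperature. EDTA-containing detection with TK antibody-cryptate/streptavidin-XL665 for 60 min; HTRF 665/620 ratio read. IC50 from 4-parameter logistic fit with variable slope.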

[2] = molecular target: T2, Ba/F3 Pro B-cell line expressing TEL-human Tyro3 fusion domain (Homo sapiens, UniProt Q06418); assay type: cell-based; conditions: cell survival, 48 h, CellTiter-Glo
T2 sequence (Q06418 518-790 limits assumed): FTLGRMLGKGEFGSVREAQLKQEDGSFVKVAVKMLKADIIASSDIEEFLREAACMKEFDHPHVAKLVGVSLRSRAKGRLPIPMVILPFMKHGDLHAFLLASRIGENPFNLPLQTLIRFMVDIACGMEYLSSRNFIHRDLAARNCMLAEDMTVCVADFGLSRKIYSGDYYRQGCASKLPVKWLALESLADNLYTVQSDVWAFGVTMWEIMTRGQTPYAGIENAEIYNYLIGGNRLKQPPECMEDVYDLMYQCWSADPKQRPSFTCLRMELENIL

Row | SMILES | IC50 [1] | IC50 [2]
1 | CC(C)n1cc(C(=O)Nc2ccc(Oc3ccnc4cnc(N5CCNCC5)cc34)cc2)c(=O)c(-c2ccc(F)cc2)c1 [Example 13, 5-(4-Fluorophenyl)-1-isopropyl-4-oxo-N-[4-[(6-piperazin-1-yl-1,7-naphthyridin-4-yl)oxy]phenyl]pyridine-3-carboxamide] | 0.006 µM | 0.212 µM
2 | O=C(Nc1ccc(Oc2ccnc3cnc(N4CCN(C5COC5)CC4)cc23)cn1)c1ccnn(-c2ccc(F)cc2)c1=O [Example 20, 2-(4-fluorophenyl)-N-[5-[[6-[4-(oxetan-3-yl)piperazin-1-yl]-1,7-naphthyridin-4-yl]oxy]-2-pyridyl]-3-oxo-pyridazine-4-carboxamide] | 0.007 µM | 0.272 µM
3 | CC(C)n1cc(C(=O)Nc2ccc(Oc3ccnc4cnc(C(=O)NC5CCN(C)CC5)cc34)cn2)c(=O)n(-c2ccc(F)cc2)c1=O [Example 27.5, 4-[[6-[[3-(4-fluorophenyl)-1-isopropyl-2,4-dioxo-pyrimidine-5-carbonyl]amino]-3-pyridyl]oxy]-N-(1-methyl-4-piperidyl)-1,7-naphthyridine-6-carboxamide] | 0.009 µM | 0.107 µM
4 | O=C(Nc1ccc(Oc2ccnc3cnc(N4CCNCC4)cc23)cc1)c1cccn(-c2ccc(F)cc2)c1=O [Example 12.2, 1-(4-fluorophenyl)-2-oxo-N-[4-[(6-piperazin-1-yl-1,7-naphthyridin-4-yl)oxy]phenyl]pyridine-3-carboxamide] | 0.016 µM | 0.238 µM
5 | CC(C)n1cc(C(=O)Nc2ccc(Oc3ccnc4cnc(C(=O)NC5CCN(C)CC5)cc34)cc2)c(=O)c(-c2ccc(F)cc2)c1 [Example 37.1, 4-[4-[[5-(4-fluorophenyl)-1-isopropyl-4-oxo-pyridine-3-carbonyl]amino]phenoxy]-N-(1-methyl-4-piperidyl)-1,7-naphthyridine-6-carboxamide] | 0.005 µM | 0.043 µM
6 | CN1CCC(NC(=O)c2cc3c(Oc4ccc(NC(=O)c5cccn(-c6ccccc6)c5=O)cc4F)ccnc3cn2)CC1 [Example 33, 4-[2-fluoro-4-[(2-oxo-1-phenyl-pyridine-3-carbonyl)amino]phenoxy]-N-(1-methyl-4-piperidyl)-1,7-naphthyridine-6-carboxamide] | 0.038 µM | 0.155 µM
7 | CN1CCC(NC(=O)c2cc3c(Oc4ccc(NC(=O)c5cn(C)cc(-c6ccc(F)cc6)c5=O)cc4)ccnc3cn2)CC1 [Example 37, 4-[4-[[5-(4-fluorophenyl)-1-methyl-4-oxo-pyridine-3-carbonyl]amino]phenoxy]-N-(1-methyl-4-piperidyl)-1,7-naphthyridine-6-carboxamide] | 0.007 µM | 0.251 µM
8 | CN1CCC(NC(=O)c2cc3c(Oc4ccc(NC(=O)c5cn(C6CC6)c(=O)n(-c6ccc(F)cc6)c5=O)cc4)ccnc3cn2)CC1 [Example 15, 4-[4-[[1-Cyclopropyl-3-(4-fluorophenyl)-2,4-dioxo-pyrimidine-5-carbonyl]amino]phenoxy]-N-(1-methyl-4-piperidyl)-1,7-naphthyridine-6-carboxamide] | 0.01 µM | 0.673 µM
9 | O=C(Nc1ccc(Oc2ccnc3cnc(N4CCNCC4)cc23)cc1)c1cn(C2CC2)c(=O)n(-c2ccc(F)cc2)c1=O [Example 36, 1-cyclopropyl-3-(4-fluorophenyl)-2,4-dioxo-N-[4-[(6-piperazin-1-yl-1,7-naphthyridin-4-yl)oxy]phenyl]pyrimidine-5-carboxamide] | 0.005 µM | 0.873 µM
10 | CN1CCC(NC(=O)c2cc3c(Nc4ccc(NC(=O)c5cccn(-c6ccccc6)c5=O)cc4)ccnc3cn2)CC1 [Example 3, N-(1-methyl-4-piperidyl)-4-[4-[(2-oxo-1-phenyl-pyridine-3-carbonyl)amino]anilino]-1,7-naphthyridine-6-carboxamide] | 0.2 µM | 0.956 µM
11 | C[C@H](CO)n1cc(C(=O)Nc2ccc(Oc3ccnc4cnc(C(=O)NC5CCN(C)CC5)cc34)cc2)c(=O)n(-c2ccc(F)cc2)c1=O [Example 14, 4-[4-[[3-(4-Fluorophenyl)-2,4-dioxo-1-[(1R)-2-hydroxy-1-methyl-ethyl]pyrimidine-5-carbonyl]amino]phenoxy]-N-(1-methyl-4-piperidyl)-1,7-naphthyridine-6-carboxamide] | 0.01 µM | 0.592 µM
12 | CC(C)n1cc(C(=O)Nc2ccc(Oc3ccnc4cnc(N5CCNCC5)cc34)cc2)c(=O)n(-c2ccc(F)cn2)c1=O [Example 12.4, 3-(5-fluoro-2-pyridyl)-1-isopropyl-2,4-dioxo-N-[4-[(6-piperazin-1-yl-1,7-naphthyridin-4-yl)oxy]phenyl]pyrimidine-5-carboxamide] | 0.006 µM | 0.313 µM
13 | Cn1cc(C(=O)Nc2ccc(Oc3ccnc4cnc(N5CCNCC5)cc34)cc2)c(=O)c(-c2ccc(F)cc2)c1 [Example 13.1, 5-(4-fluorophenyl)-1-methyl-4-oxo-N-[4-[(6-piperazin-1-yl-1,7-naphthyridin-4-yl)oxy]phenyl]pyridine-3-carboxamide] | 0.01 µM | 0.179 µM
14 | Cc1cc(NC(=O)c2cccn(-c3ccccc3)c2=O)ccc1Oc1ccnc2cnc(N3CCNCC3)cc12 [Example 30, N-[3-methyl-4-[(6-piperazin-1-yl-1,7-naphthyridin-4-yl)oxy]phenyl]-2-oxo-1-phenyl-pyridine-3-carboxamide] | 0.87 µM | 1.33 µM
15 | CC(C)n1cc(C(=O)Nc2ccc(Oc3ccnc4cnc(N5CCNCC5)cc34)cc2)c(=O)n(-c2ccccn2)c1=O [Example 12.3, 1-isopropyl-2,4-dioxo-N-[4-[(6-piperazin-1-yl-1,7-naphthyridin-4-yl)oxy]phenyl]-3-(2-pyridyl)pyrimidine-5-carboxamide] | 0.019 µM | 1.32 µM
